Test systems include A498 renal; HCT-116 colon; HOP-62 NSCLC; HOP-92 NSCLC; HT29 colon; PC-3 prostate; SN12C renal; T-47D breast; UACC-62 melanoma; UO-31 renal.
What all share (assay): NCI anticancer screen, dose series, 48 h

Results on eight compounds are retold here after PubChem BioAssay (NCI).

Where “and” joins values, the source holds several entries; their conditions need not be identical. Identical values can stand only once.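 A five-concentration, 48-hour dose response in 96-well plates underlies each endpoint, interpolated linearly between surrounding concentrations. The concentration for 50% growth inhibition is given as GI50. TGI denotes the concentration required for complete inhibition of growth.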

As to `COc1ccc2c(c1)CCc1[nH]nc(-c3cc(OC)c(OC)c(OC)c3)c1-2`, the GI50 in the experiment on A498 renal, in the experiment on HCT-116 colon, with HOP-62 NSCLC, with HOP-92 NSCLC, with HT29 colon and with PC-3 prostate was less than 10 nM each time. Moreover, the GI50 was less than 10 nM in the experiment with SN12C renal, 3590 nM in the experiment on T-47D breast, less than 10 nM with UACC-62 melanoma and less than 10 nM in the experiment on UO-31 renal. Besides, the TGI with A498 renal was less than 0.01 µM; in the experiment with HCT-116 colon, 1.16 µM; with HOP-62 NSCLC, 10.8 µM; in the experiment with HOP-92 NSCLC, 28.5 µM; with HT29 colon, 10.1 µM; in the experiment on PC-3 prostate, 17.8 µM. The TGI worked out at 22 µM with SN12C renal, 21.3 µM in the experiment on T-47D breast, 13 µM with UACC-62 melanoma and 17.3 µM with UO-31 renal.

Consider `Clc1ccc(C(c2ccc(Cl)cc2)N2CCNCC2)cc1`, for which the TGI was determined as 4.2 µM in the experiment with A498 renal; 3.84 µM in the experiment on HCT-116 colon; 3.71 µM in the experiment on HOP-62 NSCLC; 10.6 µM with HOP-92 NSCLC; 4.51 µM in the experiment with HT29 colon; 7.15 µM with PC-3 prostate. The TGI in the experiment with SN12C renal is 8.52 µM; with T-47D breast, 5.25 µM; in the experiment with UACC-62 melanoma it was 3.55 µM; in the experiment with UO-31 renal, 4.4 µM.

Regarding `OC(C1CO1)C(O)C1CO1` (stereo not drawn), the GI50 was 116000 nM in the experiment with A498 renal; 40200 nM in the experiment on HCT-116 colon; 8570 nM in the experiment on HOP-62 NSCLC; 56100 nM in the experiment on HOP-92 NSCLC; 97700 nM in the experiment with HT29 colon; 76100 nM in the experiment on PC-3 prostate. For the same compound, the GI50 is 13900 nM with SN12C renal and 37000 nM with UO-31 renal. Moreover, the TGI in the experiment with A498 renal is 134 µM and 263 µM; in the experiment with HCT-116 colon it was 110 µM and 209 µM; with HOP-62 NSCLC, 36.5 µM and 99.7 µM; in the experiment with HOP-92 NSCLC it was 146 µM and 219 µM; in the experiment with HT29 colon, 150 µM and 345 µM; with PC-3 prostate, 150 µM and 220 µM. Besides, the TGI was 126 µM and 249 µM with SN12C renal; 150 µM and 425 µM in the experiment with T-47D breast; 72.1 µM and 130 µM in the experiment on UACC-62 melanoma; 112 µM and 199 µM in the experiment with UO-31 renal.

As to `Clc1cccc(N2CCN(CCN3CCc4c([nH]c5ccccc45)C3c3cccnc3)CC2)c1` (stereo not drawn), the TGI with A498 renal is greater than 100 µM; in the experiment on HCT-116 colon it was greater than 91.3 µM; in the experiment with HOP-62 NSCLC, greater than 86.8 µM; in the experiment with HOP-92 NSCLC, greater than 86.3 µM; in the experiment with HT29 colon, greater than 80.4 µM; in the experiment with PC-3 prostate, greater than 100 µM. The TGI was greater than 92.2 µM with SN12C renal, greater than 100 µM in the experiment with T-47D breast, greater than 100 µM with UACC-62 melanoma and greater than 100 µM in the experiment on UO-31 renal.

For `COc1cc2c(cc1OC)-c1ccc3cc4c(cc3c1N(CCN(C)C)C2)OCO4`, the GI50 was 723 nM with A498 renal; 411 nM in the experiment with HCT-116 colon; 373 nM with HOP-62 NSCLC; 859 nM in the experiment on HOP-92 NSCLC; 265 nM with HT29 colon; 411 nM with PC-3 prostate. In addition, the GI50 with SN12C renal was 350 nM; in the experiment with T-47D breast, 210 nM; in the experiment on UACC-62 melanoma, 403 nM; with UO-31 renal it was 1770 nM. In addition, the TGI in the experiment on A498 renal is 2.53 µM; with HCT-116 colon it was 1.83 µM; in the experiment with HOP-62 NSCLC, 3.97 µM; with HOP-92 NSCLC, 7.94 µM; in the experiment with HT29 colon it was 1.64 µM; in the experiment on PC-3 prostate it was 6.06 µM. In addition, the TGI with SN12C renal came to 4.4 µM; with T-47D breast it was 3.48 µM; with UACC-62 melanoma, 5.4 µM; with UO-31 renal, 5.77 µM.

Take `Nc1nc2ccc3[nH]ncc3c2c2c1CCCC2`: the GI50 with A498 renal was 1640 nM; in the experiment with HCT-116 colon, 1000 nM; with HOP-62 NSCLC, 1990 nM; in the experiment on HOP-92 NSCLC, 2090 nM; in the experiment with HT29 colon, 1880 nM; in the experiment on PC-3 prostate, 2330 nM. In addition, the GI50 is 1910 nM in the experiment with SN12C renal, 2550 nM in the experiment with T-47D breast, 1430 nM with UACC-62 melanoma and 2130 nM with UO-31 renal. Also, the TGI in the experiment with A498 renal came out at 3.49 µM; with HCT-116 colon it was 5.86 µM; in the experiment with HOP-62 NSCLC, 6.77 µM; in the experiment with HOP-92 NSCLC it was 7.79 µM; in the experiment with HT29 colon, 11.8 µM; in the experiment on PC-3 prostate, 10.1 µM. Besides, the TGI in the experiment with SN12C renal is 8.93 µM; in the experiment with T-47D breast, 11.7 µM; with UACC-62 melanoma it was 3.47 µM; with UO-31 renal it was 10.5 µM.

As to `O=C(O)c1ccc([S-])cc1.[Au+].c1ccc(CN2[CH-]N(Cc3ccccc3)C(c3ccccc3)=C2c2ccccc2)cc1`, the GI50 in the experiment on A498 renal is 246 nM; with HCT-116 colon, 301 nM; with HOP-62 NSCLC, 416 nM; in the experiment on HOP-92 NSCLC, 204 nM; in the experiment on HT29 colon, 434 nM; in the experiment on PC-3 prostate, 308 nM. For the same compound, the GI50 with SN12C renal is 305 nM; in the experiment with T-47D breast, 312 nM; with UACC-62 melanoma, 319 nM; in the experiment with UO-31 renal, 311 nM. Besides, the TGI in the experiment with A498 renal was determined as 0.954 µM; with HCT-116 colon it was 1.26 µM; with HOP-62 NSCLC it was 1.73 µM; in the experiment on HOP-92 NSCLC, 0.806 µM; in the experiment on HT29 colon it was 1.58 µM; in the experiment on PC-3 prostate, 1.44 µM. For the same compound, the TGI in the experiment on SN12C renal worked out at 1.3 µM; in the experiment on T-47D breast, 1.53 µM; in the experiment with UACC-62 melanoma, 1.4 µM; in the experiment on UO-31 renal, 1.27 µM.

Regarding `O=CC(Br)C(Br)c1ccccc1` (stereo not drawn), the GI50 with A498 renal is 13900 nM; in the experiment on HCT-116 colon, 225 nM; in the experiment with HOP-62 NSCLC it was 13300 nM; with HOP-92 NSCLC, 1520 nM; in the experiment with HT29 colon, 1710 nM; with PC-3 prostate it was 2390 nM. Also, the GI50 with SN12C renal is 3060 nM; in the experiment with T-47D breast, 942 nM; with UACC-62 melanoma it was 1790 nM; with UO-31 renal, 1480 nM. For the same compound, the TGI came to 29.5 µM with A498 renal; 0.523 µM in the experiment on HCT-116 colon; 27.8 µM in the experiment on HOP-62 NSCLC; 2.89 µM in the experiment on HOP-92 NSCLC; 3.19 µM in the experiment on HT29 colon; 6.75 µM in the experiment on PC-3 prostate. The TGI in the experiment with SN12C renal stood at 11.4 µM; with T-47D breast, 3.17 µM; in the experiment with UACC-62 melanoma it was 3.74 µM; in the experiment with UO-31 renal it was 3.07 µM.
